Experimental data published in patent US6852744B2, “Pyrrolidine derivatives and their use as chymase inhibitor” (Dainippon Pharmaceutical Co., Ltd., priority 2000, dated 2005).
Read-outs that look alike come from different tables or passages of the source.

Target: T1, monkey chymase (Macaca fascicularis, UniProt P56435)
T1 construct: chymase was extracted from homogenized monkey cheek pouch and stomach; from tissue; host or cells: monkey cheek pouch and stomach
T1 sequence (P56435 22-247): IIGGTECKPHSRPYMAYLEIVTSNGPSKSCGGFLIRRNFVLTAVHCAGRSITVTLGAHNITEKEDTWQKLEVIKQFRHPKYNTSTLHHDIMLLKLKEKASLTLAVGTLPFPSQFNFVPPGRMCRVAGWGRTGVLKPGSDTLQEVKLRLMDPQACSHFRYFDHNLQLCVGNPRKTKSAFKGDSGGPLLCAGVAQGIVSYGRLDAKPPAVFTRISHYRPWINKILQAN
Experiment: Monkey chymase inhibitory activity (in vitro, angiotensin I substrate)
Type: biochemical
Details: chymase purified from monkey cheek pouch and stomach, substrate angiotensin I, 37° C.
Procedure: The inhibitory activities of the compounds on monkey chymase and human chymase were tested in vitro. The test compounds are as shown by Compound Nos. in Tables 13 and 14.
Preparation of Monkey Chymase
Chymase was purified from monkey cheek pouch and stomach in the following manner.
Briefly, chymase was extracted from homogenized monkey cheek pouch and stomach with 0.01 mol/1000 ml sodium phosphate buffer, pH 7.4, containing 2 mol/1000 ml KCl and 0.1% Nonidet P-40 (Amresco Inc.). The solution containing chymase was applied to a heparin actigel column, and the chymase-rich fractions were collected.
Measurement of Chymase Inhibitory Activity (In Vitro Assay)
Briefly, the purified monkey or human chymase was diluted to an appropriate concentration with 0.01 mol/1000 ml sodium phosphate buffer, pH 7.4, containing 2 mol/1000 ml KCl and 0.1% Nonidet P-40 and used as enzyme solution. Angiotensin I (Peptide Institute Inc.) was diluted with water to 5 mg/ml and used as substrate solution. Test compounds were serially diluted with 10% DMSO. […] After pre-incubation of the mixture at 37° C., 20 μl of the substrate solution was added to the enzyme-test compound mixture and the new mixture was incubated at 37° C. Fifty μl of 30% trichloroacetic acid solution was finally added to stop the enzymatic reaction.
The amount of L-His-L-Leu was measured as angiotensin II produced by the enzymatic reaction. Briefly, 10 μl of the reaction mixture and 10 μl of 1% orthophthalaldehyde solution dissolved in methanol were mixed with 100 μl of 2 mol/1000 ml NaOH and kept at room temperature. The reaction was then stopped by adding 10 μl of 6 mol/1000 ml HCl.

[1] = read-out: Monkey Chymase Inhibition (IC50:nM)

Row | SMILES | IC50 [1] | IC50 (Monkey Chymase Inhibition (IC50:nM))
1 | CC(C)[C@H](NC(=O)c1ccc2snnc2c1)C(=O)N1CCC[C@H]1C(=O)NC(Cc1csc2ccccc12)C(=O)C(F)(F)F (stereo partly shown) [I-A-55] | 63 nM | 
2 | Cc1noc(C)c1C(=O)N[C@H](C(=O)N1CCC[C@H]1C(=O)NC(Cc1csc2ccccc12)C(=O)C(F)(F)F)C1CCCCC1 (stereo partly shown) [I-A-6] | 33 nM | 
3 | Cc1noc(C)c1C(=O)N[C@H](C(=O)N1CCC[C@H]1C(=O)NC(Cc1c[nH]c2ccccc12)C(=O)C(F)(F)F)C(C)C (stereo partly shown) [I-A-10] | 77 nM | 
4 | Cc1nsc(C(=O)N[C@H](C(=O)N2CCC[C@H]2C(=O)NC(Cc2cc3ccccc3s2)C(=O)C(F)(F)F)C(C)C)n1 (stereo partly shown) [I-A-100] | 260 nM | 
5 | CC(C)[C@H](NC(=O)c1onc2ccccc12)C(=O)N1CCC[C@H]1C(=O)NC(Cc1csc2ccccc12)C(=O)C(F)(F)F (stereo partly shown) [I-A-59] | 250 nM | 
6 | Cc1noc(C)c1C(=O)N[C@H](C(=O)N1CCC[C@H]1C(=O)NC(Cc1ccc(F)cc1)C(=O)C(F)(F)F)C(C)C (stereo partly shown) [I-A-30] | 65 nM | 
7 | CC(C)[C@H](NC(=O)Cn1ccc(=O)n(CC(=O)O)c1=O)C(=O)N1CCC[C@H]1C(=O)NC(Cc1ccc(Cl)cc1)C(=O)C(F)(F)F (stereo partly shown) [I-A-89] | 150 nM | 
8 | Cc1nc(C)c(C(=O)N[C@H](C(=O)N2CCC[C@H]2C(=O)NC(Cc2csc3ccccc23)C(=O)C(F)(F)F)C(C)C)s1 (stereo partly shown) [I-A-65] | 37 nM | 
9 | Cc1noc(C)c1C(=O)N[C@H](C(=O)N1CCC[C@H]1C(=O)NC(Cc1ccccc1C(F)(F)F)C(=O)C(F)(F)F)C(C)C (stereo partly shown) [I-A-46] | 170 nM | 
10 | Cc1nsc(C)c1C(=O)N[C@H](C(=O)N1CCC[C@H]1C(=O)NC(Cc1cc2ccccc2s1)C(=O)C(F)(F)F)C(C)C (stereo partly shown) [I-A-94] | 15 nM | 
11 | CC(C)[C@H](NC(=O)c1noc2ccccc12)C(=O)N1CCC[C@H]1C(=O)NC(Cc1csc2ccccc12)C(=O)C(F)(F)F (stereo partly shown) [I-A-58] | 210 nM | 
12 | CC(C)[C@H](NC(=O)CN1CCN(Cc2ccccc2)C1=O)C(=O)N1CCC[C@H]1C(=O)NC(Cc1cc2ccccc2s1)C(=O)C(F)(F)F (stereo partly shown) [I-A-87] | 250 nM | 
13 | Cc1ccccc1CC(NC(=O)[C@@H]1CCCN1C(=O)[C@@H](NC(=O)c1c(C)noc1C)C(C)C)C(=O)C(F)(F)F (stereo partly shown) [I-A-33] | 73 nM | 
14 | Cc1noc(C)c1C(=O)N[C@H](C(=O)N1CCC[C@H]1C(=O)NC(Cc1ccccc1F)C(=O)C(F)(F)F)C(C)C (stereo partly shown) [I-A-27] | 51 nM | 
15 | Cc1noc(C)c1C(=O)N[C@H](C(=O)N1CCC[C@H]1C(=O)NC(Cc1cccs1)C(=O)C(F)(F)F)C(C)C (stereo partly shown) [I-A-17] | 140 nM | 
16 | Cc1noc(C)c1C(=O)N[C@H](C(=O)N1CCC[C@H]1C(=O)NC(Cc1ccccc1)C(=O)C(F)(F)F)C(C)C (stereo partly shown) [I-A-26] | 44 nM | 
17 | Cc1noc(C)c1C(=O)N[C@H](C(=O)N1CCC[C@H]1C(=O)NC(Cc1ccc(I)cc1)C(=O)C(F)(F)F)C(C)C (stereo partly shown) [I-A-42] | 130 nM | 
18 | Cc1nnsc1C(=O)N[C@H](C(=O)N1CCC[C@H]1C(=O)NC(Cc1ccc2ccccc2c1)C(=O)C(F)(F)F)C(C)C (stereo partly shown) [I-A-22] | 37 nM | 
19 | CC(C)[C@H](NC(=O)c1ccncc1)C(=O)N1CCC[C@H]1C(=O)NC(Cc1csc2ccccc12)C(=O)C(F)(F)F (stereo partly shown) [I-A-66] |  | 49 nM
20 | CC(C)[C@H](NC(=O)CN1CCN(CC(=O)O)C1=O)C(=O)N1CCC[C@H]1C(=O)NC(Cc1cc2ccccc2s1)C(=O)C(F)(F)F (stereo partly shown) [I-A-85] | 75 nM | 
21 | CC(C)[C@H](NC(=O)c1onc2cccnc12)C(=O)N1CCC[C@H]1C(=O)NC(Cc1csc2ccccc12)C(=O)C(F)(F)F (stereo partly shown) [I-A-71] | 140 nM | 
22 | CC(C)[C@H](NC(=O)Cn1ccc(=O)n(CC(=O)O)c1=O)C(=O)N1CCC[C@H]1C(=O)NC(Cc1ccccc1)C(=O)C(F)(F)F (stereo partly shown) [I-A-88] | 68 nM | 
23 | CC[C@H](NC(=O)c1c(C)noc1C)C(=O)N1CCC[C@H]1C(=O)NC(Cc1ccc2ccccc2c1)C(=O)C(F)(F)F (stereo partly shown) [I-A-13] | 50 nM | 
24 | CC(C)[C@H](NC(=O)c1nsc(Cl)c1Cl)C(=O)N1CCC[C@H]1C(=O)NC(Cc1csc2ccccc12)C(=O)C(F)(F)F (stereo partly shown) [I-A-75] | 380 nM | 
25 | CC(C)[C@H](NC(=O)c1ccnc2ccccc12)C(=O)N1CCC[C@H]1C(=O)NC(Cc1csc2ccccc12)C(=O)C(F)(F)F (stereo partly shown) [I-A-56] | 47 nM | 
